Results published in patent US20150376198A1, “MODULATORS OF VASOPRESSIN RECEPTORS WITH THERAPEUTIC POTENTIAL” (priority 2013, published 2015).

Each molecule was assayed against human Arginine Vasopressin Receptor 1a (AVPR1a) (Homo sapiens, UniProt P37288) (assay: cell-based). Conditions: not given.
Chain of human Arginine Vasopressin Receptor 1a (AVPR1a) (P37288 whole entry): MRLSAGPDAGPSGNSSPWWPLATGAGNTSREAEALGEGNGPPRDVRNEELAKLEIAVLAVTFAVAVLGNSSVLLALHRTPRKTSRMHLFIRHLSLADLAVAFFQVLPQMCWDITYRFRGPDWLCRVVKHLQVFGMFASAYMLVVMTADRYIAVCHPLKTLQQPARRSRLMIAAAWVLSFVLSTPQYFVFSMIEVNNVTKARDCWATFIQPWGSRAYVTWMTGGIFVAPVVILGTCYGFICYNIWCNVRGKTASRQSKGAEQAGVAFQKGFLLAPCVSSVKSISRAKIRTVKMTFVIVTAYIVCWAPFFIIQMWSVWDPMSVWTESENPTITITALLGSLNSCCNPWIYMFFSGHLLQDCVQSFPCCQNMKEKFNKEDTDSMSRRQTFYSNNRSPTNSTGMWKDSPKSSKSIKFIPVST

Row | SMILES | IC50 [nM]
1 | O=C(C1CCN(c2cc(C(F)(F)F)ccn2)CC1)N(CC1CC1)c1ccc(Cl)cc1 [Compound 179] | 37

Same assay, conditions: read-out: V1a-R IC50

Row | SMILES | IC50 [nM]
2 | O=C(C1CCN(c2ncc(Cl)cn2)CC1)N(CC1CC1)c1ccc(Cl)cc1 [Compound 167] | 195
3 | O=C(C1CCN(c2ncc(F)cn2)CC1)N(CC1CC1)c1ccc(Cl)cc1 [Compound 168] | 91
4 | N#Cc1ccnc(N2CCC(C(=O)N(CC3CC3)c3ccc(Cl)cc3)CC2)n1 [Compound 170] | 96
5 | O=C(C1CCN(c2nccc(C(F)(F)F)n2)CC1)N(CC1CC1)c1ccc(Cl)cc1 [Compound 171] | 146
6 | O=C(C1CCN(c2nccc(C(F)(F)F)n2)CC1)N1CCCCc2cc(Cl)ccc21 [Compound 174] | 82
7 | O=C(C1CCN(c2ccnc(Cl)c2)CC1)N1CCCCc2cc(Cl)ccc21 [Compound 176] | 216
8 | N#Cc1ccnc(N2CCC(C(=O)N3CCCCc4cc(Cl)ccc43)CC2)n1 [Compound 181] | 81
9 | Cc1cc(N2CCC(C(=O)N3CCCCc4cc(Cl)ccc43)CC2)nc(C)n1 [Compound 186] | 405
10 | CCc1cnc(N2CCC(C(=O)N(CC3CC3)c3ccc(Cl)cc3)CC2)nc1 [Compound 188] | 227
11 | Cc1cc(N2CCC(C(=O)N(CC3CC3)c3ccc(Cl)cc3)CC2)nc(C)n1 [Compound 192] | 1250
12 | O=C(C1CCN(c2ncnc3cc(Cl)ccc23)CC1)N(CC1CC1)c1ccc(Cl)cc1 [Compound 193] | 861
13 | Cc1cc(C)nc(N2CCC(C(=O)N3CCCC(=O)c4cc(Cl)ccc43)CC2)n1 [Compound 194] | 158
14 | Cc1cc(C)nc(N2CCC(C(=O)N3CCCC(F)c4cc(Cl)ccc43)CC2)n1 (stereo not drawn) [Compound 196] | 84
15 | Cc1cc(C)nc(N2CCC(C(=O)N3CCCC(C)(O)c4cc(Cl)ccc43)CC2)n1 (stereo not drawn) [Compound 197] | 134
16 | CCCN(C(=O)C1CCN(c2nc(C)cc(C)n2)CC1)c1ccc(Cl)cc1 [Compound 198] | 284
17 | Cc1cc(C)nc(N2CCC(C(=O)N(CCC(C)C)c3ccc(Cl)cc3)CC2)n1 [Compound 199] | 794
18 | Cc1cc(C)nc(N2CCC(C(=O)N(CC3CCC3)c3ccc(Cl)cc3)CC2)n1 [Compound 200] | 229
19 | O=C(C1CCN(c2ncc(C3CC3)cn2)CC1)N(CC1CC1)c1ccc(Cl)cc1 [Compound 202] | 348
20 | O=C(C1CCN(c2ncc(C(F)(F)F)cn2)CC1)N(CC1CC1)c1ccc(Cl)cc1 [Compound 203] | 570
21 | O=C(C1CCN(c2ncc3ccccc3n2)CC1)N(CC1CC1)c1ccc(Cl)cc1 [Compound 204] | 97
22 | O=C(C1CCN(c2ncnc3ccc(F)cc23)CC1)N(CC1CC1)c1ccc(Cl)cc1 [Compound 205] | 74
23 | O=C(C1CCN(c2nc3ccccc3o2)CC1)N(CC1CC1)c1ccc(Cl)cc1 [Compound 206] | 130
24 | O=C(C1CCN(c2nc3ccc(Cl)cc3o2)CC1)N(CC1CC1)c1ccc(Cl)cc1 [Compound 207] | 350
25 | O=C(C1CCN(c2ncc(C(F)(F)F)cn2)CC1)N1CCCCc2cc(Cl)ccc21 [Compound 210] | 89
26 | Cc1cc(C)nc(N2CCC(C(=O)N(CC3(C)COC3)c3ccc(Cl)cc3)CC2)n1 [Compound 227] | 517
27 | CCC(CC)N(C(=O)C1CCN(c2nc(C)cc(C)n2)CC1)c1ccc(Cl)cc1 [Compound 228] | 4940
28 | O=C1Nc2ccccc2C2(CCN(C(=O)N3CCCCc4cc(Cl)ccc43)CC2)O1 [V:292] | 305
29 | O=C(N1CCC2(CC1)OCc1ccccc12)N1CCCCc2cc(Cl)ccc21 [V:293] | 78

Other lines, results leading:

Row | IC50 [nM] | SMILES
30 | 74 | Cc1nc(N2CCC(C(=O)N(CC3CC3)c3ccc(Cl)cc3)CC2)c2ccccc2n1 [Compound 191]
31 | 69 | O=C(C1CCN(c2ncc(C3CC3)cn2)CC1)N1CCCCc2cc(Cl)ccc21 [Compound 209]
32 | 66 | O=C(C1CCN(c2ncnc3cc(Cl)ccc23)CC1)N1CCCCc2cc(Cl)ccc21 [Compound 187]
33 | 63 | N#Cc1ccnc(N2CCC(C(=O)N(CC3CC3)c3ccc(Cl)cc3)CC2)c1 [Compound 173]
34 | 61 | O=C(C1CCN(c2ncc(Cl)cc2F)CC1)N(CC1CC1)c1ccc(Cl)cc1 [Compound 219]
35 | 56 | O=C(C1CCN(c2ncc(Cl)cn2)CC1)N1CCCCc2cc(Cl)ccc21 [Compound 164]
36 | 51 | Cc1ccnc(N2CCC(C(=O)N(CC3CC3)c3ccc(Cl)cc3)CC2)n1 [Compound 169]
37 | 50 | Cc1cc(Cl)cnc1N1CCC(C(=O)N(CC2CC2)c2ccc(Cl)cc2)CC1 [Compound 217]
38 | 49 | CCc1cnc(N2CCC(C(=O)N3CCCCc4cc(Cl)ccc43)CC2)nc1 [Compound 182]
39 | 49 | O=C(C1CCN(c2ncnc3ccc(F)cc23)CC1)N1CCCCc2cc(Cl)ccc21 [Compound 212]
40 | 48 | Cc1nc(N2CCC(C(=O)N(CC3CC3)c3ccc(Cl)cc3)CC2)ncc1F [Compound 189]
41 | 45 | O=C(C1CCN(c2nc3ccc(Cl)cc3o2)CC1)N1CCCCc2cc(Cl)ccc21 [Compound 214]
42 | 41 | Cc1cc(N2CCC(C(=O)N(CC3CC3)c3ccc(Cl)cc3)CC2)ncc1Cl [Compound 216]
43 | 38 | Cc1cnc(N2CCC(C(=O)N(CC3CC3)c3ccc(Cl)cc3)CC2)nc1 [Compound 166]
44 | 35 | O=C(C1CCN(c2ncc(F)cn2)CC1)N1CCCCc2cc(Cl)ccc21 [Compound 162]
45 | 33 | O=C(C1CCN(c2ncc3c(n2)CCC3)CC1)N(CC1CC1)c1ccc(Cl)cc1 [Compound 208]
46 | 32 | Cc1nc(N2CCC(C(=O)N3CCCCc4cc(Cl)ccc43)CC2)c2ccccc2n1 [Compound 185]
47 | 28 | N#Cc1ccnc(N2CCC(C(=O)N3CCCCc4cc(Cl)ccc43)CC2)c1 [Compound 177]
48 | 28 | C#CCN(C(=O)C1CCN(c2nc(C)cc(C)n2)CC1)c1ccc(Cl)cc1 [Compound 201]
49 | 26 | Cc1nc(N2CCC(C(=O)N3CCCCc4cc(Cl)ccc43)CC2)ncc1Cl [Compound 184]

Row | IC50 [nM] | SMILES
50 | 26 | Cc1cc(C)nc(N2CCC(C(=O)N3CCCC(O)c4cc(Cl)ccc43)CC2)n1 (stereo not drawn) [Compound 195]
51 | 24 | O=C(C1CCN(c2nc3ccccc3o2)CC1)N1CCCCc2cc(Cl)ccc21 [Compound 213]
52 | 20 | Cc1cnc(N2CCC(C(=O)N(CC3CC3)c3ccc(Cl)cc3)CC2)c(F)c1 [Compound 218]
53 | 20 | O=C(C1CCN(c2ccc(C(F)(F)F)cn2)CC1)N1CCCCc2cc(Cl)ccc21 [Compound 226]
54 | 19 | O=C(C1CCN(c2ncc(Cl)cc2F)CC1)N1CCCCc2cc(Cl)ccc21 [Compound 223]
55 | 17 | COc1ccnc(N2CCC(C(=O)N(CC3CC3)c3ccc(Cl)cc3)CC2)n1 [Compound 172]
56 | 17 | O=C(C1CCN(c2cc(C(F)(F)F)ccn2)CC1)N1CCCCc2cc(Cl)ccc21 [Compound 178]
57 | 17 | Cc1ccnc(N2CCC(C(=O)N3CCCCc4cc(Cl)ccc43)CC2)n1 [Compound 180]
58 | 16 | Cc1ccnc(N2CCN(C(=O)N(CC3CC3)c3ccc(Cl)cc3)CC2)c1 [Compound 161]
59 | 16 | Cc1nc(N2CCC(C(=O)N3CCCCc4cc(Cl)ccc43)CC2)ncc1F [Compound 183]
60 | 16 | O=C(C1CCN(c2ncc3ccccc3n2)CC1)N1CCCCc2cc(Cl)ccc21 [Compound 211]
61 | 11 | COc1ccnc(N2CCC(C(=O)N3CCCCc4cc(Cl)ccc43)CC2)n1 [Compound 175]
62 | 11 | O=C(C1CCN(c2ccc(F)cn2)CC1)N1CCCCc2cc(Cl)ccc21 [Compound 224]
63 | 11 | O=C(C1CCN(c2ccc(Cl)cn2)CC1)N1CCCCc2cc(Cl)ccc21 [Compound 225]
64 | 8 | Cc1cccnc1N1CCN(C(=O)N(CC2CC2)c2ccc(Cl)cc2)CC1 [Compound 160]
65 | 7 | O=C(C1CCN(c2ncc3c(n2)CCC3)CC1)N1CCCCc2cc(Cl)ccc21 [Compound 215]
66 | 7 | Cc1cc(N2CCC(C(=O)N3CCCCc4cc(Cl)ccc43)CC2)ncc1Cl [Compound 220]
67 | 7 | Cc1cc(Cl)cnc1N1CCC(C(=O)N2CCCCc3cc(Cl)ccc32)CC1 [Compound 221]
68 | 5 | Cc1cnc(N2CCC(C(=O)N3CCCCc4cc(Cl)ccc43)CC2)c(F)c1 [Compound 222]
69 | 2 | Cc1cc(C)nc(N2CCC(C(=O)N3CCCCc4cc(Cl)ccc43)CC2)n1 [Compound 165]

The molecules below were run against T1, OT receptor (Homo sapiens, UniProt P30559) (assay: OT receptor binding (primary binding at 10 μM and Ki)). Conditions: at 10 μM; read-out: OT binding, mean % inhibition.
T1 sequence (P30559 1-389): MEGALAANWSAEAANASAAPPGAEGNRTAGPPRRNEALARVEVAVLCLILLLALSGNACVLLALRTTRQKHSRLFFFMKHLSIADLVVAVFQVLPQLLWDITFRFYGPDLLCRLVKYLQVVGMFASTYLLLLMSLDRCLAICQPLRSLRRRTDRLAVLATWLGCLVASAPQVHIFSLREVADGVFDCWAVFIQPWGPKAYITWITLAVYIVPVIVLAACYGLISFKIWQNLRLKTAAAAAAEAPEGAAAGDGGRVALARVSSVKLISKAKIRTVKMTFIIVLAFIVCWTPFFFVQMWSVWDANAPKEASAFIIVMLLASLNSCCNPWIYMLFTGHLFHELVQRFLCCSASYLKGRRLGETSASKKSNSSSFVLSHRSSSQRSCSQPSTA
Experimental: The default concentration for primary binding experiments was 10 μM.
See Examples for further details.

Row | inhibition at 10 µM [%] | SMILES
70 | 22.3 | CCN(C(=O)N1CCN(C(=O)c2ccccc2)CC1)c1ccc(OC)cc1 [Compound 9]
71 | 14.8 | Cc1cc(-c2nnc(C)n2-c2ccccc2)ccc1CNC(=O)N1CCN(Cc2cc(O)cc(O)c2)CC1 [Compound 11]
72 | 10.6 | COC(=O)CC(NC(=O)OC(C)(C)C)C(=O)N1CCN(c2ccccc2C)CC1 (stereo not drawn) [Compound 12]
